Results on twelve molecules are retold here after patent US12643906B2, “Fused aza-heterocyclic amide compound and use thereof” (CSPC ZHONGQI PHARMACEUTICAL TECHNOLOGY (SHIJIAZHUANG) CO., …, priority 2020, dated 2026).

Like-named read-outs stand apart in the source and are kept apart here.

The target in series [1] is T1, Ba/F3 ETV6-NTRK3-G623R (Homo sapiens, UniProt Q16288, G623R, cells depend on it).
T1 construct: fused on or other part: P41212 (Transcription factor ETV6)
The experiment in a line: In vitro cell proliferation inhibition (MTT). As to conditions: 72 h, read-out: IC50 Ba/F3 ETV6-NTRK3-G623R. It is filed as cell-based, murine. The procedure:
(§1) Cells in the logarithmic growth phase were harvested and counted using a […]. The cell suspension with a certain density was pipetted uniformly and seeded into a 96-well plate with each well of 100 μL, and shaken to make the cells uniformly disperse into the wells. 100 μL of compound solution with certain concentration gradient was added into each well, and 3 duplicate wells were set for each concentration. The plate was cultured in a CO2 incubator at 37° C. for 72 h. 20 μL of MTT working solution (5 mg/mL) was added into each well, and the plate was placed at 37° C. for 4 h, and centrifuged at 1000 rpm for 5 min by a plate centrifuge. After 180 μL of culture medium was discarded, the plate was added with 150 μL of DMSO, and mixed well with a microplate shaker, the plate bottom was wiped, and optical density (OD) at 550 nm was detected with a microplate reader.

Series [2] concerns the target T2, Ba/F3 LMNA-NTRK1-G595R (Homo sapiens, UniProt P04629, G595R, cells depend on it).
T2 construct: fused on or other part: P02545 (Prelamin-A/C)
The experiment in a line: In vitro cell proliferation inhibition (MTT). As to conditions: 72 h, read-out: IC50 Ba/F3 LMNA-NTRK1-G595R. It is filed as cell-based, murine. The procedure: as §1

Series [3] has as its target T3, Ba/F3 LMNA-NTRK1-G667C (Homo sapiens, UniProt P04629, G667C, cells depend on it).
T3 construct: fused on or other part: P02545 (Prelamin-A/C)
The experiment in a line: In vitro cell proliferation inhibition (MTT). It is filed as cell-based, murine. Conditions: 72 h, read-out: IC50 Ba/F3 LMNA-NTRK1-G667C. On the procedure: as §1

Series [4] concerns the target T4, Ba/F3 ETV6-NTRK3-G696A (Homo sapiens, UniProt Q16288, G696A, cells depend on it).
T4 construct: fused on or other part: P41212 (Transcription factor ETV6)
The experiment in a line: In vitro cell proliferation inhibition (MTT). Conditions: 72 h, read-out: IC50 Ba/F3 ETV6-NTRK3-G696A. It is filed as cell-based, murine. The procedure:
• Source of 6 kinds of cell lines for the test: KYinno Biotechnology (Beijing) Co., Ltd. • Cell type: murine B cells • Culture medium: RPMI-1640+10% FB S 2. Test Method
as §1

Series [5] has as its target T5, Ba/F3 ETV6-NTRK2 (Homo sapiens, UniProt Q16620).
T5 construct: fused on or other part: P41212 (Transcription factor ETV6)
The experiment in a line: In vitro cell proliferation inhibition (MTT). It is filed as cell-based, murine. The procedure: as §1

Series [6] deals with T6, Ba/F3 LMNA-NTRK1 (Homo sapiens, UniProt P04629).
T6 construct: fused on or other part: P02545 (Prelamin-A/C)
The experiment in a line: In vitro cell proliferation inhibition (MTT). It is filed as cell-based, murine. Conditions: 72 h, read-out: IC50 Ba/F3 LMNA-NTRK1. On the procedure:
as §1

The target in series [7] is T7, ALK (Homo sapiens, UniProt Q9UM73).
T7 construct: purchased Carna 08-105
The experiment in a line: Kinase inhibition assay with fluorescein labeled peptide, ALK. It is filed as biochemical. The procedure: Compounds were diluted to a certain concentration in DMSO with 4-fold gradients. The compound with a certain concentration, an enzyme solution and DMSO were added into a 384-well plate, and the plate was incubated at room temperature for 10 min. […] The plate was subjected to reading.

Series [8] has as its system Ba/F3 LMNA-NTRK1-G595R model. Conditions: 100 mg/kg, gavage. On the procedure: (§2) The cells in the logarithmic growth phase were collected and re-suspending in serum-free culture medium to make the cell concentration at […] cells/mL. The cell suspension was added with equal volume of Matrigel to make the final cell concentration at 3×10^7-5×10^7 cells/mL. The animal model was established by subcutaneously inoculating 0.1 mL of tumor cell suspension in the axilla of the forelimb of NuNu mice (female, 4-6 weeks, Beijing Vital River Laboratory Animal Technology Co., Ltd.) in an amount of 3×10^6-5×10^6 cells/mouse.
(§3) The maximum and the minimum tumor diameters of the xenografts in nude mice were measured using a vernier caliper, and the tumor volume (TV) was calculated according to the formula: V=½×a×b^2, where a and b represent the maximum and minimum diameters of the tumor mass, respectively. Nude mice with appropriate tumor volume were selected and the mice were evenly divided into 7 groups of 6 mice (100-200 mm^3) by tumor volume using a random number method.
(§4) Tumor diameters were measured twice weekly and tumor volume was calculated. […] (where Ti represents the mean tumor volume of a certain administration group on a certain day; TO represents the mean tumor volume of the administration group at the start of administration, Vi represents the mean tumor volume of the vehicle control group on a certain day (same day as Ti) and V0 represents the mean tumor volume of the vehicle control group at the start of administration); • Tumor inhibition rate: at the end of the test, the animals were executed by removing the cervical vertebrae.

The test system of series [9] is Ba/F3 LMNA-NTRK1-G667C model. As to conditions: gavage. On the procedure: as §2, §3, §4
Where [10] appears, read: 72 h, read-out: IC50 Ba/F3 ETV6-NTRK2.

On to `O=C(Nc1ccc(N2CCN(C(=O)C3CC3)CC2)cc1)c1cnn2ccc(N3C[C@@H](F)C[C@@H]3c3cc(F)ccc3F)nc12` [Compound 7], for which the GI50 amounted to 0.499 nM in series [1], 0.156 nM in series [2], 1.78 nM in [3] and 0.736 nM in [4].

Consider `C[C@@H](O)C(=O)N1CCC(c2ccc(NC(=O)c3cnn4ccc(N5C[C@@H](F)C[C@@H]5c5cc(F)ccc5F)nc34)cc2)CC1` [Compound 12], for which the GI50 in series [5] (setting [10]) worked out at 1.13 nM; in series [1], 0.237 nM; in [6], 0.635 nM; in series [2], 0.215 nM; in [3], 1.53 nM; in [4], 0.112 nM.

For the molecule `CC(C)(O)C(=O)N1CCC(c2ccc(NC(=O)c3cnn4ccc(N5C[C@@H](F)C[C@@H]5c5cc(F)ccc5F)nc34)cc2)CC1` [Compound 13], in series [3], the GI50 was 1.47 nM.

As for `O=C(Nc1ccc(CN2CCN(C(=O)CO)CC2)cc1)c1cnn2ccc(N3C[C@@H](F)C[C@@H]3c3cc(F)ccc3F)nc12` [Compound 18, 5-((2R,4S)-2-(2,5-difluorophenyl)-4-fluoropyrrolidin-1-yl)-N-(4-(4-(2-(2-hydroxyacetyl)piperazin-1-yl)methyl)phenyl)pyrazolo[1,5-a]pyrimidine-3-carboxamide], the GI50 in series [3] stood at 3.43 nM.

In the case of `O=C(Nc1ccc(N2CCn3c(nnc3C(F)(F)F)C2)cc1)c1cnn2ccc(N3C[C@@H](F)C[C@@H]3c3cc(F)ccc3F)nc12` [Compound 23], the GI50 came out at 0.852 nM in series [1], 0.525 nM in series [2], 4.93 nM in series [3] and 0.435 nM in series [4].

Turning to `CCN1CCN(c2ccc(C(=O)Nc3cnn4ccc(N5CCC[C@@H]5c5cc(F)ccc5F)nc34)cc2)CC1` [Compound D1], the GI50 in series [5] (setting [10]) worked out at 6.09 nM; in series [1] it was 24.8 nM; in [6], 1.6 nM; in series [2] it was 289 nM; in [3], 307 nM; in series [4], 258 nM.

For `COc1cc(N2CCN(C)CC2)ccc1C(=O)Nc1cnn2ccc(N3CCC[C@@H]3c3cc(F)ccc3F)nc12` [Compound D2], the GI50 came out at 13.4 nM in series [5] (setting [10]); 46.5 nM in series [1]; 1.03 nM in series [6]; 230 nM in series [2]; 42.7 nM in [3]; 202 nM in [4].

`CN1CCN(Cc2ccc(C(=O)Nc3cnn4ccc(N5CCC[C@@H]5c5cc(F)ccc5F)nc34)cc2)CC1` [Compound D3]: the GI50 in [5] (setting [10]) was determined as 17.4 nM; in series [1] it was 207 nM; in series [6], 8.68 nM; in [2], 522 nM; in [3], 316 nM; in series [4], 542 nM.

Turning to `O=C(NC1CCN(C(=O)CO)CC1)c1cnn2ccc(N3C[C@@H](F)C[C@@H]3c3cccc(F)c3)nc12` [Compound D4], the GI50 is 14.9 nM in [5] (setting [10]); 17 nM in [1]; 9.52 nM in [6]; 65.9 nM in [2]; at least 1000 nM in series [3]; 141 nM in [4].

For the molecule `O=C(Nc1ccccc1)c1cnn2ccc(N3C[C@@H](F)C[C@@H]3c3cccc(F)c3)nc12` [Compound D5], the GI50 in series [5] (setting [10]) worked out at 12.2 nM; in series [1], 13.3 nM; in [6] it was 2.14 nM; in [2], 4.59 nM; in series [3], 413 nM; in series [4], 90.8 nM.

The term IC50 denotes the midpoint of a concentration-inhibition curve. Read a high IC50 as lower potency. `C[C@@H]1CCc2ncc(F)cc2[C@H]2CCCN2c2ccn3ncc(c3n2)C(=O)N1` [LOXO-195, reference compound] gave an IC50 in [7] of 391 nM. Moreover, the GI50 in [5] (setting [10]) turned out to be 2.89 nM; in series [1] it was 4.54 nM; in series [6], 9.08 nM; in [3], 112 nM; in series [4] it was 4.5 nM. For the same molecule, the “Number of animals (Survival/total)” value in series [8] is “(6/6)”; in series [9] (100 mg/kg), “(6/6)”; in [9] (200 mg/kg), “(5/6)”. Also, the “Rate of weight gain (%)” value in series [8] turned out to be 8.59%; in series [9] (100 mg/kg), 2.38%; in [9] (200 mg/kg) it was 7.88%. The “TGI (%)” value in series [8] is 124.6%; in series [9] (100 mg/kg) it was 36.4%; in series [9] (200 mg/kg) it was 95.4%. The figures for the “Tumor volume (mm^3)” value in series [8], in series [9] (100 mg/kg) and in [9] (200 mg/kg) were 66.3 ± 37.1 mm^3, 381.2 ± 134.4 mm^3 and 154.5 ± 92.2 mm^3, respectively. Moreover, the “Tumor weight” value turned out to be 0.12 ± 0.06 g in series [8], 0.43 ± 0.18 g in [9] (100 mg/kg) and 0.22 ± 0.16 g in series [9] (200 mg/kg). Further, the “Tumor weight inhibition rate (%)” value in series [8] was found to be 76.58%; in series [9] (100 mg/kg), 21.57%; in series [9] (200 mg/kg), 59.96%.

With `CN1CCN(c2ccc(C(=O)Nc3n[nH]c4ccc(Cc5cc(F)cc(F)c5)cc34)c(NC3CCOCC3)c2)CC1` [RXDX-101, Entrectinib], the GI50 in [5] (read-out: IC50 Ba/F3 ETV6-NTRK2, 72 h) worked out at 2.13 nM.
